In PubChem BioAssay AID248 (DTP/NCI, 2004) one finds T/C data, which are given here for 22 molecules.

The assay has as its system L1210 leukemia ip in BDF1 mice, survival T/C. Briefly: NCI In Vivo Anticancer Drug Screen. Data for tumor model L1210 Leukemia (intraperitoneal) in B6D2F1 (BDF1) mice. The conditions noted are these: endpoint: mean survival time, higher = longer survival. The method in brief: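 Ratio derived from survival: compound-dosed mice over vehicle-dosed mice, all bearing a transplantable tumor.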

The mark [1] stands for this setting: dose: 100.0 mg/kg/injection, schedule: Q01DX001 (ip), vehicle: saline.
Setting [2] is: dose: 200.0 mg/kg/injection, schedule: Q01DX001 (ip), vehicle: saline.
[3] abbreviates: dose: 100.0 mg/kg/injection, schedule: Q01DX009 (ip), vehicle: saline.
Setting [4] is: dose: 200.0 mg/kg/injection, schedule: Q01DX009 (ip), vehicle: saline.
The mark [5] stands for this setting: dose: 75.0 mg/kg/injection, schedule: Q01DX001 (ip), vehicle: saline.
[6] abbreviates: dose: 150.0 mg/kg/injection, schedule: Q01DX001 (ip), vehicle: saline.
[7] abbreviates: dose: 300.0 mg/kg/injection, schedule: Q01DX001 (ip), vehicle: saline.
Setting [8] is: dose: 25.0 mg/kg/injection, schedule: Q01DX009 (ip), vehicle: saline.
Where [9] appears, read: dose: 50.0 mg/kg/injection, schedule: Q01DX009 (ip), vehicle: saline.
[10] abbreviates: dose: 100.0 mg/kg/injection, schedule: Q01DX001 (ip), vehicle: other.
Setting [11] is: dose: 200.0 mg/kg/injection, schedule: Q01DX001 (ip), vehicle: other.
Setting [12] is: dose: 400.0 mg/kg/injection, schedule: Q01DX001 (ip), vehicle: other.

“And” between values parts separate entries of the source, which are not always exact repeats. Identical values can stand only once. Toxic doses and inconclusive results are not listed.

With `N#C/C([SH2+])=C(/[SH2+])C#N.N#C/C([SH2+])=C(/[SH2+])C#N.N#C/C([SH2+])=C(/[SH2+])C#N.N#C/C([SH2+])=C(/[SH2+])C#N.[Co+3].[Co+3].c1ccc([P+](c2ccccc2)(c2ccccc2)c2ccccc2)cc1`, the T/C was 105 % of control (dose: 50.0 mg/kg/injection, schedule: Q04DX003 (ip), vehicle: saline); 105 % of control under setting [1]; 97 % of control (dose: 100.0 mg/kg/injection, schedule: Q04DX003 (ip), vehicle: saline); 109 % of control under setting [2]; 108 % of control (dose: 200.0 mg/kg/injection, schedule: Q04DX003 (ip), vehicle: saline).

`COC(=O)c1ccc(COc2ccc([N+](=O)[O-])cc2Cl)cc1`: the T/C was 94 % of control (dose: 100.0 mg/kg/injection, schedule: Q01DX009 (ip), vehicle: saline sonified); 96 % of control (dose: 100.0 mg/kg/injection, schedule: Q04DX003 (ip), vehicle: saline with Tween-80); 96 % of control (dose: 200.0 mg/kg/injection, schedule: Q01DX009 (ip), vehicle: saline sonified); 94 % of control (dose: 200.0 mg/kg/injection, schedule: Q04DX003 (ip), vehicle: saline with Tween-80); 94 % of control (dose: 400.0 mg/kg/injection, schedule: Q01DX009 (ip), vehicle: saline sonified); 96 % of control (dose: 400.0 mg/kg/injection, schedule: Q04DX003 (ip), vehicle: saline with Tween-80).

For `[Cl][Hg][CH2]C1COC([CH2][Hg][Cl])CO1` (stereo not drawn), the T/C by setting is: (dose: 25.0 mg/kg/injection, schedule: Q01DX001 (ip), vehicle: carboxymethylcellulose (CMC)) 90 % of control; (dose: 50.0 mg/kg/injection, schedule: Q01DX001 (ip), vehicle: carboxymethylcellulose (CMC)) 92 % of control; (dose: 100.0 mg/kg/injection, schedule: Q01DX001 (ip), vehicle: carboxymethylcellulose (CMC)) 95 % of control.

For `Cc1ccccc1N=P(c1ccccc1)(c1ccccc1)c1ccccc1`, the T/C by setting is: (dose: 100.0 mg/kg/injection, schedule: Q01DX009 (ip), vehicle: gum acacia) 100 % of control; (dose: 100.0 mg/kg/injection, schedule: Q04DX003 (ip), vehicle: gum acacia) 93 % of control; (dose: 200.0 mg/kg/injection, schedule: Q01DX009 (ip), vehicle: gum acacia) 102 % of control; (dose: 200.0 mg/kg/injection, schedule: Q04DX003 (ip), vehicle: gum acacia) 90 % of control; (dose: 400.0 mg/kg/injection, schedule: Q04DX003 (ip), vehicle: gum acacia) 93 % of control.

As to `CCCCOc1c(OCCCC)c(=O)c1=O`, the T/C runs as follows: (dose: 178.0 mg/kg/injection, schedule: Q01DX001 (ip), vehicle: saline) 106 % of control; (dose: 267.0 mg/kg/injection, schedule: Q01DX001 (ip), vehicle: saline) 106 % of control.

For the molecule `CC/C(C)=N\NC(=O)c1cccnc1`, the T/C reads like this: under setting [3], 110 % of control; under setting [4], 110 % of control.

As for `c1ccc(CN2C3c4ccccc4C2c2ccccc23)cc1`, the T/C is 96 % of control under setting [1]; 112 % of control under setting [2]; 95 % of control (dose: 400.0 mg/kg/injection, schedule: Q01DX001 (ip), vehicle: saline).

In the case of `COCC(CNO)OC(=O)c1ccc(N)cc1` (stereo not drawn), the T/C (dose: 55.0 mg/kg/injection, schedule: Q01DX Z (ip), vehicle: saline) is 89 % of control and the T/C (dose: 125.0 mg/kg/injection, schedule: Q01DX Z (ip), vehicle: saline) is 100 % of control.

With `CCN(c1ccccc1)P(I)(c1ccccc1)(c1ccccc1)c1ccccc1`, the T/C (dose: 1.17 mg/kg/injection, schedule: Q01DX001 (ip), vehicle: other) is 107 % of control; the T/C (dose: 2.34 mg/kg/injection, schedule: Q01DX001 (ip), vehicle: other) is 114 % of control; the T/C (dose: 4.69 mg/kg/injection, schedule: Q01DX001 (ip), vehicle: other) was 107 % of control.

Turning to `S=c1[nH]n(-c2ccccc2)c(=S)s1`, the T/C is 100 % of control under setting [1] and 105 % of control under setting [2].

As for `OC(Cn1cnc2ccccc21)c1ccccc1` (stereo not drawn), the T/C is, setting by setting: (dose: 100.0 mg/kg/injection, schedule: Q04DX003 (ip), vehicle: Klucel (hydroxypropylcellulose) (HPC)) 96 % of control; (dose: 200.0 mg/kg/injection, schedule: Q04DX003 (ip), vehicle: Klucel (hydroxypropylcellulose) (HPC)) 97 % of control; (dose: 400.0 mg/kg/injection, schedule: Q04DX003 (ip), vehicle: Klucel (hydroxypropylcellulose) (HPC)) 94 % of control.

Consider `CCN=C(N)SCCS(=O)(=O)O`, for which the T/C is 98 % of control (dose: 100.0 mg/kg/injection, schedule: Q04DX002 (ip), vehicle: saline); 95 % of control (dose: 200.0 mg/kg/injection, schedule: Q04DX002 (ip), vehicle: saline); 92 % of control (dose: 400.0 mg/kg/injection, schedule: Q04DX002 (ip), vehicle: saline).

For `O=C(Cl)c1cc(Cl)nc2c(Cl)cc(Cl)cc12`, the T/C runs as follows: under setting [5], 86 % of control; under setting [6], 94 % of control; under setting [7], 90 % of control.

As for `Nc1nc(N)c2nc(CNc3ccc(C(=O)NC(CC(=O)O)C(=O)O)cc3)cnc2n1` (stereo not drawn), the T/C (dose: 1.56 mg/kg/injection, schedule: Q01DX Z (ip), vehicle: saline) is 114 % of control; the T/C (dose: 3.12 mg/kg/injection, schedule: Q01DX009 (ip), vehicle: saline) was 110 % of control; the T/C (dose: 3.13 mg/kg/injection, schedule: Q01DX Z (ip), vehicle: saline) is 108 % of control; the T/C under setting [8] was 151 % of control; the T/C (dose: 25.0 mg/kg/injection, schedule: Q01DX Z (ip), vehicle: saline) is 172 % of control; the T/C under setting [9] was 166 % of control. The T/C was 118 % of control (dose: 50.0 mg/kg/injection, schedule: Q01DX Z (ip), vehicle: saline); 95 % of control under setting [3]; 114 % of control and 88 % of control (dose: 100.0 mg/kg/injection, schedule: Q01DX Z (ip), vehicle: saline); 95 % of control (dose: 200.0 mg/kg/injection, schedule: Q01DX Z (ip), vehicle: saline).

For `O=C(O)C1=CC2C3C=C(C(=O)O)C(C3)C2C1` (stereo not drawn), the T/C is 96 % of control (dose: 100.0 mg/kg/injection, schedule: Q01DX001 (ip), vehicle: Klucel (hydroxypropylcellulose) (HPC)); 96 % of control (dose: 200.0 mg/kg/injection, schedule: Q01DX001 (ip), vehicle: Klucel (hydroxypropylcellulose) (HPC)); 97 % of control (dose: 400.0 mg/kg/injection, schedule: Q01DX001 (ip), vehicle: Klucel (hydroxypropylcellulose) (HPC)).

For the molecule `CC(C)(C)C(=O)CC(c1ccccc1)c1ccccc1`, the T/C was 102 % of control (dose: 50.0 mg/kg/injection, schedule: Q01DX001 (ip), vehicle: other); 98 % of control under setting [10]; 98 % of control under setting [11]; 98 % of control under setting [12].

For `COc1ccc(C2(C=O)CN(C)CN2)cc1` (stereo not drawn), the T/C is, setting by setting: under setting [10], 96 % of control; under setting [11], 107 % of control; under setting [12], 96 % of control.

Consider `O=C(O)/C=C\c1c[nH]c2ccccc12` (tested in a mixture with another compound), for which the T/C is, setting by setting: under setting [5], 104 % of control; under setting [6], 105 % of control; under setting [7], 110 % of control.

`O=Cc1c(O)ccc2ccccc12`: the T/C is 90 % of control (dose: 100.0 mg/kg/injection, schedule: Q04DX002 (ip), vehicle: Klucel (hydroxypropylcellulose) (HPC)); 93 % of control (dose: 200.0 mg/kg/injection, schedule: Q04DX002 (ip), vehicle: Klucel (hydroxypropylcellulose) (HPC)); 96 % of control (dose: 400.0 mg/kg/injection, schedule: Q04DX002 (ip), vehicle: Klucel (hydroxypropylcellulose) (HPC)).

As for `COC(=O)C1C(O)C(C)C(=O)C(C)/C=C\C=C(C)C(=O)Nc2c(C)c(OC(C)=O)c3c(c2O)C(=O)C(C)=C2OCOC(=C23)C(C)=CC(C)(O)C(O)C(C)C1O` (stereo not drawn), the T/C reads like this: under setting [8], 96 % of control; under setting [9], 98 % of control; under setting [3], 96 % of control; under setting [4], 98 % of control.

Turning to `CCC[CH2][Sn]([CH2]CCC)([O]C(C)=O)[O]C(C)=O`, the T/C runs as follows: (dose: 3.0 mg/kg/injection, schedule: Q01DX009 (ip), vehicle: saline) 106 % of control; (dose: 6.12 mg/kg/injection, schedule: Q01DX009 (ip), vehicle: saline) 101 % of control; (dose: 12.5 mg/kg/injection, schedule: Q01DX009 (ip), vehicle: saline) 108 % of control; under setting [8], 89 % of control.

`COc1cc(CNC2CCCCC2)ccc1O`: the T/C reads like this: under setting [5], 97 % of control; under setting [6], 110 % of control.
